Measurements reported in PubChem BioAssay (NCI).
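Briefly, cells in 96-well plates were exposed to five compound concentrations for 48 h, and endpoints were estimated by linear interpolation. TGI denotes the concentration required for complete inhibition of growth.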

Tests used:
Test in all cases: DTP human tumour cell line panel, 48 h
ACHN renal = test system: ACHN renal
SF-295 CNS = test system: SF-295 CNS
OVCAR-8 ovarian = test system: OVCAR-8 ovarian
NCI/ADR-RES ovarian = test system: NCI/ADR-RES ovarian
K-562 leukemia = test system: K-562 leukemia
MDA-N = test system: MDA-N
RPMI-8226 leukemia = test system: RPMI-8226 leukemia
A549 NSCLC = test system: A549 NSCLC
HL-60(TB) leukemia = test system: HL-60(TB) leukemia
A498 renal = test system: A498 renal
TK-10 renal = test system: TK-10 renal
HT29 colon = test system: HT29 colon
SK-MEL-2 melanoma = test system: SK-MEL-2 melanoma
DU-145 prostate = test system: DU-145 prostate
SN12C renal = test system: SN12C renal
KM12 colon = test system: KM12 colon
OVCAR-5 ovarian = test system: OVCAR-5 ovarian
MALME-3M melanoma = test system: MALME-3M melanoma
NCI-H226 lung = test system: NCI-H226 lung
MDA-MB-435 = test system: MDA-MB-435
SK-OV-3 ovarian = test system: SK-OV-3 ovarian
HOP-92 NSCLC = test system: HOP-92 NSCLC
HCC-2998 colon = test system: HCC-2998 colon
SNB-75 CNS = test system: SNB-75 CNS
M14 melanoma = test system: M14 melanoma
EKVX NSCLC = test system: EKVX NSCLC
NCI-H522 lung = test system: NCI-H522 lung
HS 578T breast = test system: HS 578T breast
COLO 205 colon = test system: COLO 205 colon
BT-549 breast = test system: BT-549 breast
HOP-62 NSCLC = test system: HOP-62 NSCLC
IGROV1 ovarian = test system: IGROV1 ovarian
MDA-MB-231 breast = test system: MDA-MB-231 breast
OVCAR-4 ovarian = test system: OVCAR-4 ovarian
HCT-116 colon = test system: HCT-116 colon
CAKI-1 renal = test system: CAKI-1 renal
SR leukemia = test system: SR leukemia
CCRF-CEM leukemia = test system: CCRF-CEM leukemia
SF-539 CNS = test system: SF-539 CNS
T-47D breast = test system: T-47D breast
RXF 393 renal = test system: RXF 393 renal
NCI-H23 lung = test system: NCI-H23 lung
SW-620 colon = test system: SW-620 colon
UACC-257 melanoma = test system: UACC-257 melanoma
LOX IMVI melanoma = test system: LOX IMVI melanoma
SNB-19 CNS = test system: SNB-19 CNS
MCF7 breast = test system: MCF7 breast
OVCAR-3 ovarian = test system: OVCAR-3 ovarian
SK-MEL-5 melanoma = test system: SK-MEL-5 melanoma
MOLT-4 leukemia = test system: MOLT-4 leukemia
UACC-62 melanoma = test system: UACC-62 melanoma
HCT-15 colon = test system: HCT-15 colon
UO-31 renal = test system: UO-31 renal
786-0 renal = test system: 786-0 renal
SF-268 CNS = test system: SF-268 CNS
PC-3 prostate = test system: PC-3 prostate
SK-MEL-28 melanoma = test system: SK-MEL-28 melanoma
NCI-H460 lung = test system: NCI-H460 lung
U251 CNS = test system: U251 CNS

Which results are given for `CCCCc1ccc(Nc2nc(Cl)c3[nH]cnc3n2)cc1`?
TGI (ACHN renal): > 100 µM; TGI (SF-295 CNS): 34.6 µM; TGI (OVCAR-8 ovarian): 37.3 µM; TGI (NCI/ADR-RES ovarian): 47.7 µM; TGI (K-562 leukemia): > 100 µM; TGI (MDA-N): 43.1 µM; TGI (RPMI-8226 leukemia): > 100 µM; TGI (A549 NSCLC): > 100 µM; TGI (HL-60(TB) leukemia): > 100 µM; TGI (A498 renal): 55.4 µM; TGI (TK-10 renal): 50.6 µM; TGI (HT29 colon): 36.3 µM; TGI (SK-MEL-2 melanoma): 31 µM; TGI (DU-145 prostate): 61.8 µM; TGI (SN12C renal): 49.9 µM; TGI (KM12 colon): 32 µM; TGI (OVCAR-5 ovarian): > 100 µM; TGI (MALME-3M melanoma): 42.2 µM; TGI (NCI-H226 lung): > 100 µM; TGI (MDA-MB-435): 32.1 µM; TGI (SK-OV-3 ovarian): 99.8 µM; TGI (HOP-92 NSCLC): 26.3 µM; TGI (HCC-2998 colon): 41.2 µM; TGI (SNB-75 CNS): 85.4 µM; TGI (M14 melanoma): 41.5 µM; TGI (EKVX NSCLC): > 100 µM; TGI (NCI-H522 lung): 65.3 µM; TGI (HS 578T breast): 50.5 µM; TGI (COLO 205 colon): 43.4 µM; TGI (BT-549 breast): 65.4 µM; TGI (HOP-62 NSCLC): 27.8 µM; TGI (IGROV1 ovarian): 71.8 µM; TGI (MDA-MB-231 breast): 30.2 µM; TGI (OVCAR-4 ovarian): > 100 µM; TGI (HCT-116 colon): 29.9 µM; TGI (CAKI-1 renal): 54.1 µM; TGI (SR leukemia): > 100 µM; TGI (CCRF-CEM leukemia): > 100 µM; TGI (SF-539 CNS): 32.7 µM; TGI (T-47D breast): 37.2 µM; TGI (RXF 393 renal): 31.6 µM; TGI (NCI-H23 lung): 33.9 µM; TGI (SW-620 colon): 37.4 µM; TGI (UACC-257 melanoma): 30.8 µM; TGI (LOX IMVI melanoma): 26.6 µM; TGI (SNB-19 CNS): 43.5 µM; TGI (MCF7 breast): 37.9 µM; TGI (OVCAR-3 ovarian): 28.9 µM; TGI (SK-MEL-5 melanoma): 31.6 µM; TGI (MOLT-4 leukemia): > 100 µM; TGI (UACC-62 melanoma): 31.9 µM; TGI (HCT-15 colon): 34.4 µM; TGI (UO-31 renal): 72.5 µM; TGI (786-0 renal): 29.1 µM; TGI (SF-268 CNS): 59.9 µM

What does the source list for `Cn1ncc2c(NCCc3ccccc3)nc(Cl)nc21`?
TGI (ACHN renal): > 100 µM; TGI (SF-295 CNS): 67.7 µM; TGI (OVCAR-8 ovarian): > 100 µM; TGI (NCI/ADR-RES ovarian): 59.9 µM; TGI (PC-3 prostate): 71.8 µM; TGI (K-562 leukemia): > 100 µM; TGI (MDA-N): 56.5 µM; TGI (RPMI-8226 leukemia): 47.4 µM; TGI (A549 NSCLC): 77.4 µM; TGI (A498 renal): 45.5 µM; TGI (TK-10 renal): 65 µM; TGI (HT29 colon): 31 µM; TGI (SK-MEL-2 melanoma): 36.7 µM; TGI (DU-145 prostate): > 100 µM; TGI (SN12C renal): > 100 µM; TGI (KM12 colon): 85.5 µM; TGI (OVCAR-5 ovarian): 36.4 µM; TGI (MALME-3M melanoma): > 100 µM; TGI (NCI-H226 lung): 76.1 µM; TGI (MDA-MB-435): 44.9 µM; TGI (SK-OV-3 ovarian): 71.7 µM; TGI (HOP-92 NSCLC): 58.4 µM; TGI (HCC-2998 colon): 40.3 µM; TGI (SNB-75 CNS): 76.1 µM; TGI (M14 melanoma): 39.7 µM; TGI (EKVX NSCLC): 23.3 µM; TGI (NCI-H522 lung): > 100 µM; TGI (SK-MEL-28 melanoma): 76.4 µM; TGI (HS 578T breast): > 100 µM; TGI (COLO 205 colon): 34.2 µM; TGI (NCI-H460 lung): 31.1 µM; TGI (BT-549 breast): 78.4 µM; TGI (HOP-62 NSCLC): 81.3 µM; TGI (IGROV1 ovarian): > 100 µM; TGI (MDA-MB-231 breast): 39.4 µM; TGI (OVCAR-4 ovarian): 57.7 µM; TGI (HCT-116 colon): > 100 µM; TGI (CAKI-1 renal): 91.4 µM; TGI (T-47D breast): 79.3 µM; TGI (RXF 393 renal): > 100 µM; TGI (NCI-H23 lung): > 100 µM; TGI (SW-620 colon): 89.1 µM; TGI (UACC-257 melanoma): 12.3 µM; TGI (LOX IMVI melanoma): > 100 µM; TGI (SNB-19 CNS): > 100 µM; TGI (MCF7 breast): > 100 µM; TGI (OVCAR-3 ovarian): > 100 µM; TGI (SK-MEL-5 melanoma): 38.6 µM; TGI (MOLT-4 leukemia): 39.9 µM; TGI (UACC-62 melanoma): 45.1 µM; TGI (HCT-15 colon): > 100 µM; TGI (UO-31 renal): 73 µM; TGI (786-0 renal): 64.2 µM; TGI (SF-268 CNS): > 100 µM; TGI (U251 CNS): > 100 µM
